Values quoted from earlier work in US20200289553A1, “Compositions and Methods for the Treatment of Metabolic Conditions” (REVEN IP HOLDCo LLC, priority 2017, published 2020).

Assays:
[1] = 241 osteoporotic women, 45 mg/day vitamin K2 and 150 mg elemental calcium, after two years
[2] = rats, 100 mg/kg body weight daily
[3] = rabbits

## CC(C)=CCC/C(C)=C/CC/C(C)=C/CC/C(C)=C/CC1=C(C)C(=O)c2ccccc2C1=O [vitamin K2]
[1]
  lumbar bone mineral density: maintain lumbar bone mineral density
[1]; 30% in the control group
  fracture incidence: 10%
[2]
  calcium in kidneys and aorta induced by megadose of synthetic vitamin D: inhibited the increase in calcium in both kidneys and aorta
[3]; 1-10 mg/kg daily for 10 weeks
  atherosclerotic plaque progression: inhibited the atherosclerotic plaque progression in the aorta and pulmonary arteries
[3]; compared to the control group
  total cholesterol levels, lipid peroxidation, ester cholesterol deposition in the aorta and factor X activity in plasma: seen to reduce
